# Entries after “also recorded” stand apart in the source; their conditions may differ.
# Columns and labels:
# XOD (xanthine oxidase) = XOD (xanthine oxidase) (Homo sapiens, UniProt P47989); assay: In vitro XOD enzyme activity inhibition (xanthine substrate, uric acid measured at 290 nm); type: biochemical; conditions: for inhibition at 1000 µM: compound concentration 1 mM (FIG. 11), read-out: xanthine oxidase inhibitory activity at 1 mM; for IC50: in vitro, inhibitor co-reacted with XOD 10 min, xanthine substrate, 290 nm, read-out: XOI IC50 (XOD inhibitory activity)
# Sequence of XOD (xanthine oxidase) (P47989 whole entry, species assumed): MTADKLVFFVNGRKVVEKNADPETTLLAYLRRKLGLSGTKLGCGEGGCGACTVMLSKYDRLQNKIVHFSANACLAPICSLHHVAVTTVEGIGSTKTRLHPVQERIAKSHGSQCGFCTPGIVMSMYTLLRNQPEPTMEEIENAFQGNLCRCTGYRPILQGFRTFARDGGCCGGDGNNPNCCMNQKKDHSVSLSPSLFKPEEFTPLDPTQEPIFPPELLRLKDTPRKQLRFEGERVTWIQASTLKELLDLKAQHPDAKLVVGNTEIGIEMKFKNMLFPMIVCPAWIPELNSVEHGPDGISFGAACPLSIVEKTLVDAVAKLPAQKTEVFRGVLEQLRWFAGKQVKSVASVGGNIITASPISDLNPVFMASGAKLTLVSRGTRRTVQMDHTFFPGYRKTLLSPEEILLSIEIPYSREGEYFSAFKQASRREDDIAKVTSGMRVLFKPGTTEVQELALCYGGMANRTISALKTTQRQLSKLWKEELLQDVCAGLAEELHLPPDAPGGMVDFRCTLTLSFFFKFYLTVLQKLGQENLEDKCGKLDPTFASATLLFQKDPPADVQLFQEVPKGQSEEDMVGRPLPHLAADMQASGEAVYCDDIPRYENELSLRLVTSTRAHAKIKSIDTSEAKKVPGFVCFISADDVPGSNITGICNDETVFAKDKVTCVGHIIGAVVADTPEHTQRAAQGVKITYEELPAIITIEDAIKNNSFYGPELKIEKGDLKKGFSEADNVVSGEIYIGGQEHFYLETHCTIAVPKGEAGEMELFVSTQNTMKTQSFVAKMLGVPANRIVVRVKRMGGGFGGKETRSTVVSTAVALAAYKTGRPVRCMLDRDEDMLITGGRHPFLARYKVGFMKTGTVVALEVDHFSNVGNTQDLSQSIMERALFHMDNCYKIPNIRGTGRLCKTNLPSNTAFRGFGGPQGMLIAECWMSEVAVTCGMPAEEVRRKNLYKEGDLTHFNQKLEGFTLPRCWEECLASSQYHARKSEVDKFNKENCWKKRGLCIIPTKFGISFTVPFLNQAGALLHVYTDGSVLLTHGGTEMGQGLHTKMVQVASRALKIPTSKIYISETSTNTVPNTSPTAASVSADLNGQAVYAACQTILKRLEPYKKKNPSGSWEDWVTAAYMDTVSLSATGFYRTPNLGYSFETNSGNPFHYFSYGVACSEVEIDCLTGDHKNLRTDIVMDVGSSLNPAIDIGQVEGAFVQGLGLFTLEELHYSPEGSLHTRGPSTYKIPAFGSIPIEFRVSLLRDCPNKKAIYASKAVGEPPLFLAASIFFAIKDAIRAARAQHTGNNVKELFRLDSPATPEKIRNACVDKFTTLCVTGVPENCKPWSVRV
# Method: The inhibitory effect of quinoline structural analogs on XOD was evaluated by co-reacting an inhibitor with XOD for 10 min, adding a certain concentration of a reaction substrate xanthine, and measuring the amount of uric acid produced at 290 nm.
# hyperuricemic mice [1] = assay: Serum uric acid in hyperuricemic mice (UA test kit); type: in vivo, Kunming mice; conditions: for serum uric acid level: hyperuricemic mice, day 21, vs model group (p<0.01), KA 7, 35, 70 mM/kg/day, allopurinol 35 mM/kg/day, gavage
# Method: (§1) The normal control group received daily gavage of an equal amount of CMC-Na solution and injection of an equal amount of saline, and the remaining groups received daily gavage of 500 mg/kg hypoxanthine (HX) and intraperitoneal injection of 300 mg/kg potassium oxazinate (PO). […] Oral gavage was continued for 21 days. Data were analyzed for correlation and significance by using SPSS 23.0 software, and differences between the groups were compared by using one-way ANOVA, *p<0.05 indicates a significant difference, **p<0.01 indicates a very significant difference, and the data were expressed as X±SD.
# At the end of the experiment on day 21, the mice in each group of Example 1 were subjected to blood collection from eyeballs of living bodies after being fasted for solids and liquids for 12 h. After sufficient blood samples were collected, they were allowed to stand at room temperature for 30 min and then centrifuged (3500 rpm, 10 min). A supernatant was taken and stored at −20° C. for standby application.
# Serum uric acid levels in target mice were detected by using a uric acid (UA) test kit. The serum uric acid level is an important evaluation index of drug improvement in hyperuricemia.
# [2] = test system: adenosine deaminase (ADA); assay: Serum adenosine deaminase activity (ADA) in hyperuricemic mice (peroxidase method kit); type: in vivo, Kunming mice
# From the text: as §1, with “36 SPF-grade male Kunming mice with relatively consistent posture and good health were randomly divided into a normal control group, a model group, a positive control group, a kynurenic acid low dose group (KA-L), a kynurenic acid medium dose group (KA-M) and a kynurenic acid high dose group (KA-H), with six experimental mice in each group. The” for “The”
# At the end of the experiment on day 21, the mice in each group of Example 1 were subjected to blood collection from eyeballs of living bodies after being fasted for solids and liquids for 12 h. […]
# Serum samples of Example 2 were taken, and ADA enzyme activity levels in the mouse serum samples were determined by using an adenosine deaminase activity (ADA) assay kit (a peroxidase method).
# hyperuricemic mice [3] = assay: Hepatic uric acid in hyperuricemic mice; type: in vivo, Kunming mice; conditions: liver homogenate, day 21 (p<0.01); KA 7, 35, 70 mM/kg/day; allopurinol 35 mM/kg/day
# From the text: as §1, with “36 SPF-grade male Kunming mice with relatively consistent posture and good health were randomly divided into a normal control group, a model group, a positive control group, a kynurenic acid low dose group (KA-L), a kynurenic acid medium dose group (KA-M) and a kynurenic acid high dose group (KA-H), with six experimental mice in each group. The” for “The”
# Serum uric acid levels in target mice were detected by using a uric acid (UA) test kit. […]
# On day 21, the mice in each group of Example 1 were quickly sacrificed by cervical dislocation after being fasted for solids and liquids for 12 h and livers were collected for weighing and subpackaging. […] Uric acid levels in the mouse liver homogenate samples were determined by using the method described in Example 2. […]
# hyperuricemic mice [4] = assay: Blood urea nitrogen (BUN) in hyperuricemic mice; type: in vivo, Kunming mice
# From the text: as §1, with “36 SPF-grade male Kunming mice with relatively consistent posture and good health were randomly divided into a normal control group, a model group, a positive control group, a kynurenic acid low dose group (KA-L), a kynurenic acid medium dose group (KA-M) and a kynurenic acid high dose group (KA-H), with six experimental mice in each group. The” for “The”, “X±SD. […]” for “X±SD.”
# Serum samples of Example 2 were taken and the blood urea nitrogen (BUN) content in the mouse serum samples was measured by using a blood urea nitrogen (BUN) assay kit (a urease method), and experimental operations and data calculation were performed in strict accordance with the kit instructions.
# [5] = Body weight of hyperuricemic mice; type: in vivo, Kunming mice; conditions: hyperuricemic mice (HX + PO), daily gavage KA 7, 35 or 70 mM/kg, 21 days
# Method: SPF-grade male Kunming mice (8 weeks old), 35±5 g, were purchased from Changzhou Cavens Laboratory Animal Co., Ltd. Animal quality was tested by Suzhou Xishan Biotechnology Co., Ltd.
# Experimental mice were housed in a clean animal feeding room, and feeding and experimental operations were performed according to the standards of the Animal Experimental Center, and the animal feeding room and an operating workbench were cleaned and disinfected daily. All experimental mice were housed in a comfortable environment (temperature: 25±2° C., humidity: 40%-70%, 12 hours of day and night cycle) with good ventilation and daily supplementation of feed and drinking water.
# 36 SPF-grade male Kunming mice with relatively consistent posture and good health were randomly divided into a normal control group, a model group, a positive control group, a kynurenic acid low dose group (KA-L), a kynurenic acid medium dose group (KA-M) and a kynurenic acid high dose group (KA-H), with six experimental mice in each group. […] Data were analyzed for correlation and significance by using SPSS 23.0 software, and differences between the groups were compared by using one-way ANOVA, *p<0.05 indicates a significant difference, **p<0.01 indicates a very significant difference, and the data were expressed as X±SD. […]
# XOD [6] = target: T1, XOD (Mus musculus, UniProt Q00519); assay: Hepatic XOD enzyme activity in hyperuricemic mice; type: in vivo, Kunming mice; conditions: liver homogenate, day 21, vs model group (p<0.01); KA 7, 35, 70 mM/kg/day
# T1 construct: from tissue; host or cells: liver homogenate of male Kunming mice (hyperuricemia model)
# T1 sequence (Q00519 whole entry): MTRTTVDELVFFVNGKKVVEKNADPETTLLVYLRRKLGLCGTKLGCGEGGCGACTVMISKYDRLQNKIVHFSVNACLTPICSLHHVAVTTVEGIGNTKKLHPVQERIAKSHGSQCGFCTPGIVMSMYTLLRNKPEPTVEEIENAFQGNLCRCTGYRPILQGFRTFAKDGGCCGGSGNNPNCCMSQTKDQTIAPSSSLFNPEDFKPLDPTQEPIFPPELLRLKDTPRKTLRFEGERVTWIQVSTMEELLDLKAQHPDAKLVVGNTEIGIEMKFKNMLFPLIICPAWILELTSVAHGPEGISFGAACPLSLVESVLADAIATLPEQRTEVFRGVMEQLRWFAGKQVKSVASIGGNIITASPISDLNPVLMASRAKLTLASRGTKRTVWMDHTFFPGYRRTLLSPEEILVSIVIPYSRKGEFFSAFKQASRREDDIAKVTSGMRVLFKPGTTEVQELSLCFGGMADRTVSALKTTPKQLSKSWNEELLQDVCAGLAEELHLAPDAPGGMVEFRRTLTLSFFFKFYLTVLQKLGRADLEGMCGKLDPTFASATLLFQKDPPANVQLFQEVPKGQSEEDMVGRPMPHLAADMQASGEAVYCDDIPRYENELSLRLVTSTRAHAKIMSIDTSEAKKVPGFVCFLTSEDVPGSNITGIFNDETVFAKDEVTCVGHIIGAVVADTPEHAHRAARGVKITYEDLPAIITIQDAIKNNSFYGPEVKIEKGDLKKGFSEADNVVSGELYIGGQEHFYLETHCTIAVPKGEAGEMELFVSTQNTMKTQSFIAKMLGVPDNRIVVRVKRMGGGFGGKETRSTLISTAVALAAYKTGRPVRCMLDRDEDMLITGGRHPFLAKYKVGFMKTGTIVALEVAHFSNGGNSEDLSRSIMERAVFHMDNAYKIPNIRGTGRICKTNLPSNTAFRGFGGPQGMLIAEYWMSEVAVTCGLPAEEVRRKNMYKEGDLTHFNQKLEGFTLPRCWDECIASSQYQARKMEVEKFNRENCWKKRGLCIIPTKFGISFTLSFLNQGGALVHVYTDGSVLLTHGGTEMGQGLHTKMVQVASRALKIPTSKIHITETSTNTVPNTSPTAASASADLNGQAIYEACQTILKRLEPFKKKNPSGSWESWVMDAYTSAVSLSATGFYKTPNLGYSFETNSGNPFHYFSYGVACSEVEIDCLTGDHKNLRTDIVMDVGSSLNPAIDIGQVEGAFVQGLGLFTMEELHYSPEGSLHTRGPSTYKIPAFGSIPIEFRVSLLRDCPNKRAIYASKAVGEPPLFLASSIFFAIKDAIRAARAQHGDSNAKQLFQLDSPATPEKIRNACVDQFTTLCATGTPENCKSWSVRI
# From the text: (§2) 36 SPF-grade male Kunming mice with relatively consistent posture and good health were randomly divided into a normal control group, a model group, a positive control group, a kynurenic acid low dose group (KA-L), a kynurenic acid medium dose group (KA-M) and a kynurenic acid high dose group (KA-H), with six experimental mice in each group. The normal control group received daily gavage of an equal amount of CMC-Na solution and injection of an equal amount of saline, and the remaining groups received daily gavage of 500 mg/kg hypoxanthine (HX) and intraperitoneal injection of 300 mg/kg potassium oxazinate (PO). […] Oral gavage was continued for 21 days. Data were analyzed for correlation and significance by using SPSS 23.0 software, and differences between the groups were compared by using one-way ANOVA, *p<0.05 indicates a significant difference, **p<0.01 indicates a very significant difference, and the data were expressed as X±SD.
# Serum samples of Example 2 were taken, and the XOD enzyme activity levels in the mouse serum samples were determined by using a xanthine oxidase (XOD) assay kit (a colorimetric method), and experimental operations and data calculation were performed in strict accordance with the kit instructions. […]
# XOD [7] = target: T1, XOD; assay: Serum XOD enzyme activity in hyperuricemic mice (colorimetric kit); type: in vivo, Kunming mice; conditions: day 21, vs model group (p<0.01), KA 7, 35, 70 mM/kg/day, allopurinol 35 mM/kg/day
# Method: as §1
# After sufficient blood samples were collected, they were allowed to stand at room temperature for 30 min and then centrifuged (3500 rpm, 10 min). A supernatant was taken and stored at −20° C. for standby application.
# hyperuricemic mice [8] = assay: Serum creatinine (CRE) in hyperuricemic mice; type: in vivo, Kunming mice; conditions: day 21, vs model group (p<0.01), KA 7, 35, 70 mM/kg/day
# From the text: as §2, with “X±SD. […]” for “X±SD.”
# Serum samples of Example 2 were taken and the CRE content of the mouse serum samples was measured by using a creatinine (CRE) assay kit (sarcosine oxidation), and experimental operations and data calculation were performed in strict accordance with the kit instructions.
# [9] = hyperuricemic mice, day 21, vs model group (p<0.01), KA 7, 35, 70 mM/kg/day
SMILES,inhibition at 1000 µM (XOD (xanthine oxidase)) [%],IC50 (XOD (xanthine oxidase)) [mM],serum uric acid level (hyperuricemic mice [1]),hepatic uric acid level (hyperuricemic mice [3]),other results
"O=C(O)c1cnc2ccc(O)cc2c1 [Compound 5, 6-Hydroxyquinoline-3-carboxylic acid]",> 50,0.5 ± 0.13,,,
"CCOC(=O)c1cc(O)c2ccccc2n1 [Compound 7, Ethyl 4-hydroxyquinoline-2-carboxylate]",,5.65 ± 0.1,,,
"O=C(O)c1cc(O)nc2ccccc12 [Compound 11, 2-Hydroxyquinoline-4-carboxylic acid]",,1.61 ± 0.07,,,
"Oc1ncnc2[nH]ncc12 [allopurinol, reference compound]",,,significantly inhibited the increase,significantly reduced,xanthine oxidase inhibitory activity at various concentrations (XOD (xanthine oxidase); FIG. 10A to 10R): concentration-dependent

# Further lines, with some results ahead:
inhibition at 1000 µM (XOD (xanthine oxidase)) [%],IC50 (XOD (xanthine oxidase)) [mM],SMILES,serum uric acid level (hyperuricemic mice [1]),hepatic uric acid level (hyperuricemic mice [3]),other results
> 50,0.97 ± 0.05,"O=C(O)c1nc2ccccc2cc1O [Compound 13, 3-Hydroxyquinoline-2-carboxylic acid]",,,
,1.99 ± 0.26,"O=C(O)c1cc(O)c2ccccc2n1 [KA, Kynurenic acid]",significantly reduce,reduce hepatic UA levels in a concentration-dependent manner; also recorded: reduce hepatic uric acid levels in a concentration-dependent manner; also recorded: gradient decline,"serum uric acid level, comparison among KA doses (hyperuricemic mice [1]; KA-H, 70 mM/kg/day, day 21): most pronounced; serum ADA enzyme activity, comparison among KA doses ([2]; KA-H, 70 mM/kg/day, day 21): the most significant; serum ADA enzyme activity [2, 9]: effectively reduce; also recorded: significantly reduced; BUN level compared with the positive control group (hyperuricemic mice [4]; KA-M and KA-H (35 and 70 mM/kg/day) vs allopurinol 35 mM/kg/day (p<0.01)): reduce BUN levels in the mice more significantly; blood urea nitrogen (BUN) level (hyperuricemic mice [4]; [9]): significantly reduces; also recorded: significantly decrease; growth status and body weight [5]: no significant effect; also recorded: no significant impact; also recorded: did not affect; hepatic XOD enzyme activity (XOD [6]): effectively inhibit; also recorded: decreased significantly; serum XOD enzyme activity (XOD [7]): reduce serum XOD enzyme activity in hyperuricemic mice to varying degrees; serum creatinine (CRE) level (hyperuricemic mice [8]): significantly reduces; also recorded: significantly decrease"

# Reference: patent US20250275954A1, “USE OF KYNURENIC ACID RESISTING HYPERURICEMIA AND STRUCTURAL ANALOG THEREOF IN PREPARATION OF XOD INHIBITOR” (JIMEI UNIVERSITY, priority 2023, published 2025)
